Values after ≈ are worked out from the molar mass of the structure shown.
Legend:
[1] = system: Aspergillus terreus; test: Synergistic antifungal activity against Aspergillus terreus ATCC MYA-3633 assessed as voriconazole MIC measured after 48 hrs by checkboard based microplate reader analysis; assay type: functional
[2] = system: HEK293; test: Cytotoxicity against HEK293 cells assessed as cell survival at 4 to 16 microg/ml by XTT assay; assay type: toxicity, cell-based; conditions: human, dose 4-16 µg/ml
[3] = system: Candida albicans; test: Synergistic antifungal activity against Candida albicans ATCC MYA-2310 assessed as voriconazole MIC measured after 48 hrs by checkboard based microplate reader analysis; assay type: functional
[4] = system: Candida albicans; test: Synergistic antifungal activity against Candida albicans ATCC MYA-1003 assessed as voriconazole MIC measured after 48 hrs by checkboard based microplate reader analysis; assay type: functional
[5] = system: Candida albicans; test: Antifungal activity against Candida albicans ATCC MYA-2876 measured after 48 hrs by broth microdilution analysis; assay type: functional
[6] = system: BEAS-2B; test: Cytotoxicity against human BEAS-2B cells assessed as cell survival at 4 to 16 microg/ml by XTT assay; assay type: toxicity, cell-based; conditions: dose 4-16 µg/ml
[7] = system: Candida albicans; test: Antifungal activity against Candida albicans ATCC 64124 measured after 48 hrs by broth microdilution analysis; assay type: functional
[8] = system: HEK293; test: Cytotoxicity against HEK293 cells assessed as cell survival up to 4 microg/ml by XTT assay; assay type: toxicity, cell-based; conditions: human, dose < 4 µg/ml
[9] = system: Candida albicans; test: Additive antifungal activity against Candida albicans ATCC MYA-1237 assessed as fractional inhibitory concentration index measured for 72 hrs in presence of voriconazole; assay type: functional
[10] = system: Candida albicans; test: Synergistic antifungal activity against Candida albicans ATCC MYA-2876 assessed as voriconazole MIC measured after 48 hrs by checkboard based microplate reader analysis; assay type: functional
[11] = system: Candida albicans; test: Antifungal activity against Candida albicans ATCC MYA-1003 measured after 48 hrs by broth microdilution analysis; assay type: functional
[12] = Cytotoxicity against human BEAS-2B cells assessed as cell survival by XTT assay; assay type: toxicity, cell-based; conditions: read-out: Activity
[13] = Cytotoxicity against HEK293 cells assessed as cell survival by XTT assay; assay type: toxicity, cell-based; conditions: human, read-out: Activity
[14] = system: J774.A1; test: Cytotoxicity against mouse J774.A1 cells assessed as cell survival at 4 to 16 microg/ml by XTT assay; assay type: toxicity, cell-based; conditions: dose 4-16 µg/ml
[15] = Cytotoxicity against mouse J774.A1 cells assessed as cell survival at 8 microg/ml by XTT assay; assay type: toxicity, cell-based; conditions: J774.A1 cells, at 8 µg/mL, read-out: Activity
[16] = system: Candida albicans; test: Synergistic antifungal activity against Candida albicans ATCC MYA-1237 assessed as voriconazole MIC measured after 48 hrs by checkboard based microplate reader analysis; assay type: functional
[17] = system: Candida albicans; test: Antifungal activity against Candida albicans ATCC MYA-1237 measured after 48 hrs by broth microdilution analysis; assay type: functional
[18] = system: J774.A1; test: Cytotoxicity against mouse J774.A1 cells assessed as cell survival up to 4 microg/ml by XTT assay; assay type: toxicity, cell-based; conditions: dose < 4 µg/ml
[19] = system: Candida albicans; test: microbe, parasite or virus in culture; conditions: ATCC 10231, 48 h
Description: Synergistic antifungal activity against Candida albicans ATCC 10231 assessed as voriconazole MIC measured after 48 hrs by checkboard based microplate reader analysis

[20] = system: Candida albicans; test: microbe, parasite or virus in culture; conditions: ATCC 90819, 48 h
Description: Synergistic antifungal activity against Candida albicans ATCC 90819 assessed as voriconazole MIC measured after 48 hrs by checkboard based microplate reader analysis

[21] = system: Candida albicans; test: microbe, parasite or virus in culture; conditions: ATCC 64124, 48 h
Description: Synergistic antifungal activity against Candida albicans ATCC 64124 assessed as voriconazole MIC measured after 48 hrs by checkboard based microplate reader analysis

[22] = system: BEAS-2B; test: Cytotoxicity against human BEAS-2B cells assessed as cell survival up to 4 microg/ml by XTT assay; assay type: toxicity, cell-based; conditions: dose < 4 µg/ml
[23] = system: Aspergillus terreus; test: Antifungal activity against Aspergillus terreus ATCC MYA-3633 measured after 48 hrs by broth microdilution analysis; assay type: functional
[24] = system: HEK293; test: Cytotoxicity against HEK293 cells assessed as cell survival at 8 microg/ml by XTT assay; assay type: toxicity, cell-based; conditions: human, dose 8 µg/ml
[25] = system: Candida albicans; test: Antifungal activity against Candida albicans ATCC 90819 measured after 48 hrs by broth microdilution analysis; assay type: functional
[26] = system: Nakaseomyces glabratus; test: Synergistic antifungal activity against Candida glabrata ATCC 2001 assessed as voriconazole MIC measured after 48 hrs by checkboard based microplate reader analysis; assay type: functional
[27] = system: Candida albicans; test: Antifungal activity against Candida albicans ATCC 10231 measured after 48 hrs by broth microdilution analysis; assay type: functional
[28] = system: Nakaseomyces glabratus; test: Antifungal activity against Candida glabrata ATCC 2001 measured after 48 hrs by broth microdilution analysis; assay type: functional
[29] = Cytotoxicity against mouse J774.A1 cells assessed as cell survival by XTT assay; assay type: toxicity, cell-based; conditions: read-out: Activity
[30] = system: Candida albicans; test: Synergistic antifungal activity against Candida albicans ATCC 10231 assessed as posaconazole MIC measured after 48 hrs by checkboard based microplate reader analysis; assay type: functional
[31] = system: Candida albicans; test: Synergistic antifungal activity against Candida albicans ATCC MYA-2310 assessed as posaconazole MIC measured after 48 hrs by checkboard based microplate reader analysis; assay type: functional
[32] = system: Candida albicans; test: Additive antifungal activity against Candida albicans ATCC MYA-1237 assessed as fractional inhibitory concentration index measured for 72 hrs in presence of posaconazole; assay type: functional
[33] = system: Candida albicans; test: Synergistic antifungal activity against Candida albicans ATCC MYA-2876 assessed as posaconazole MIC measured after 48 hrs by checkboard based microplate reader analysis; assay type: functional
[34] = system: Candida albicans; test: Synergistic antifungal activity against Candida albicans ATCC 64124 assessed as posaconazole MIC measured after 48 hrs by checkboard based microplate reader analysis; assay type: functional
[35] = system: Candida albicans; test: Synergistic antifungal activity against Candida albicans ATCC MYA-1237 assessed as posaconazole MIC measured after 48 hrs by checkboard based microplate reader analysis; assay type: functional
[36] = system: Candida albicans; test: Synergistic antifungal activity against Candida albicans ATCC 90819 assessed as posaconazole MIC measured after 48 hrs by checkboard based microplate reader analysis; assay type: functional
[37] = Cytotoxicity against mouse J774.A1 cells assessed as cell survival at 16 microg/ml by XTT assay; assay type: toxicity, cell-based; conditions: at 16 µg/mL, read-out: Activity
[38] = system: Nakaseomyces glabratus; test: Synergistic antifungal activity against Candida glabrata ATCC 2001 assessed as posaconazole MIC measured after 48 hrs by checkboard based microplate reader analysis; assay type: functional
[39] = system: Aspergillus terreus; test: Synergistic antifungal activity against Aspergillus terreus ATCC MYA-3633 assessed as posaconazole MIC measured after 48 hrs by checkboard based microplate reader analysis; assay type: functional
[40] = Cytotoxicity against HEK293 cells assessed as cell survival at 16 microg/ml by XTT assay; assay type: toxicity, cell-based; conditions: human, at 16 µg/mL, read-out: Activity
[41] = system: Candida albicans; test: Synergistic antifungal activity against Candida albicans ATCC MYA-1003 assessed as posaconazole MIC measured after 48 hrs by checkboard based microplate reader analysis; assay type: functional

SMILES	MIC [5] [mg/L]	MIC [7] [mg/L]	Activity [8]	MIC [11] [mg/L]	viability [12] [%]	viability [13] [%]	viability at 8 microg/ml [15] [%]	MIC [17] [mg/L]	Activity [18]	Activity [22]	MIC [23] [mg/L]	Activity [24]	MIC [25] [mg/L]	MIC [27] [mg/L]	MIC [28] [mg/L]	viability [29] [%]	other results
C[C@@H](c1ncncc1F)[C@](O)(Cn1cncn1)c1ccc(F)cc1F [VORICONAZOLE]	> 32	> 32	Non-Toxic	> 32	> 100	> 100	100	> 32	Non-Toxic	Non-Toxic	0.25 (≈ 0.716 µM)	Non-Toxic	> 32	1 (≈ 2.86 µM)	> 32	> 100	MIC [1]: 0.5 mg/L; Activity [2]: Non-Toxic; MIC [3]: > 32 mg/L; MIC [4]: 2 mg/L; Activity [6]: Non-Toxic; fractional inhibitory concentration index (FICI) [9]: 2; MIC [10]: > 32 mg/L; Activity [14]: Non-Toxic; MIC [16]: > 32 mg/L; MIC [19]: 0.25 mg/L (≈ 0.716 µM); MIC [20]: 0.25 mg/L (≈ 0.716 µM); MIC [21]: 4 mg/L (≈ 11.5 µM); MIC [26]: > 32 mg/L
CC[C@@H]([C@H](C)O)n1ncn(-c2ccc(N3CCN(c4ccc(OC[C@@H]5CO[C@@](Cn6cncn6)(c6ccc(F)cc6F)C5)cc4)CC3)cc2)c1=O [POSACONAZOLE]	> 32	> 32	Non-Toxic	> 32	> 100	> 100	80	> 32	Non-Toxic	Non-Toxic	0.25 (≈ 0.357 µM)	Non-Toxic	> 32	1 (≈ 1.43 µM)	> 32	> 100	MIC [30]: 0.125 mg/L; MIC [31]: 0.5 mg/L; fractional inhibitory concentration index (FICI) [32]: 2; MIC [33]: > 32 mg/L; MIC [34]: 2 mg/L; MIC [35]: 0.5 mg/L; MIC [36]: 0.25 mg/L; viability at 16 microg/ml [37]: 46%; MIC [38]: 0.25 mg/L; MIC [39]: 0.25 mg/L; viability at 16 microg/ml [40]: 45%; MIC [41]: 0.5 mg/L

Source: ChEMBL document CHEMBL5252541, “Repurposing antipsychotic drugs into antifungal agents: Synergistic combinations of azoles and bromperidol derivatives in the treatment of various fungal infections” (Eur J Med Chem, 2017)
